Test [1] deals with Leishmania donovani axenic amastigote parasites. As to the kind of experiment: Leishmania donovani axenic amastigote proliferation assay (Cell TiterGlo luminescence, 2 day incubation). Format: cell-based. As to conditions: Leishmania donovani, L. donovani axenic amastigotes; read-out: L. donovani amastigotes EC50. Background: Cellular ATP, detected with luciferase, serves as a proxy for viable cell number.

Test [2] deals with L. donovani HU3 strain in mouse peritoneal macrophages. The experiment in a line: Assay for proliferation of Leishmania parasites in infected mouse peritoneal macrophages (SybrGreen staining, high-content imaging, 5 days). Format: cell-based, Leishmania donovani. As to conditions: Leishmania donovani, Peritoneal macrophage, L. donovani in mouse peritoneal macrophages; read-out: L. donovani Macrophage EC50.

The subject of test [3] is Trypanosoma brucei Lister 427 strain, bloodstream form. The experiment in a line: Assay for proliferation of kinetoplastid parasite Trypanosoma brucei (Cell Titer Glo, 48 hours). The class given is cell-based. As to conditions: Trypanosoma brucei. In short, it runs like this: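 Bloodstream-form T. brucei Lister 427 in HMI-9 medium was exposed to compound (DMSO vehicle) for 48 hours at 37° C, 5% CO2. Parasite growth was read as ATP by CellTiter-Glo luminescence, with EC50 calculated from percent inhibition.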

In test [4] the test system is Trypanosoma cruzi amastigotes (Tulahuen strain expressing Lac-Z) cultured in 3T3 fibroblast cells. As to the kind of experiment: microbe, parasite or virus in culture. The class given is cell-based. As to conditions: Trypanosoma cruzi, TULAHUEN, Fibroblast, T. cruzi amastigotes in 3T3 fibroblast cells; read-out: T cruzi EC50.
Where [5] appears, read: T. brucei Lister 427 bloodstream form, read-out: T. brucei EC50.

Here are results for 30 compounds from US20160045505A1, “COMPOUNDS AND COMPOSITIONS FOR THE TREATMENT OF PARASITIC DISEASES” (NOVARTIS AG, priority 2013, published 2016).

One may read the EC50 as the concentration needed to bring the measured effect to its halfway point.

The structures appear in SMILES notation. Where two headings read alike, the source gives them in different places.

`CC(C)OC(=O)Nc1cnc2nc(-c3cc(Nc4nccc5ccoc45)ccc3F)cn2c1` [Compound 497]: the EC50 is 0.641 µM in test [1], 1.28 µM in test [2], 0.496 µM in test [3] (setting [5]) and 0.112 µM in test [4].

Take `COc1cccnc1Nc1ccc(F)c(-c2cn3cc(NC(=O)OC(C)C)cnc3n2)c1` [Compound 498]: the concentration for a half-maximal effect (EC50) was 0.849 µM in test [1], 28 µM in test [2], 0.478 µM in test [3] (setting [5]) and 1.34 µM in test [4].

As for `CC(C)OC(=O)Nc1cnc2nc(-c3cc(NC4=NCCO4)ccc3F)cn2c1` [Compound 499], the EC50 in test [1] was more than 25 µM; in test [2] it was 8.26 µM; in test [3] (setting [5]), 4.67 µM; in test [4] it was 9.42 µM.

Regarding `CC(C)OC(=O)Nc1cnc2nc(-c3cc(NC4=NC(C)(C)CO4)ccc3F)cn2c1` [Compound 500], the EC50 was more than 25 µM in test [1], more than 17.6 µM in test [2], more than 50 µM in test [3] (setting [5]) and more than 20 µM in test [4].

As to `CC(C)OC(=O)Nc1cnc2nc(-c3cc(NC4=NCC(C)O4)ccc3F)cn2c1` (stereo not drawn) [Compound 501], the EC50 in test [1] was more than 25 µM; in test [2] it was more than 50 µM; in test [3] (setting [5]) it was 3.14 µM; in test [4] it was 10.5 µM.

On to `CC1COC(Nc2ccc(F)c(-c3cn4cc(NC(=O)OC(C)C)cnc4n3)c2)=N1` (stereo not drawn) [Compound 502], for which the concentration for a half-maximal effect (EC50) in test [1] was more than 25 µM; in test [2], 16 µM; in test [3] (setting [5]), 6.73 µM; in test [4], 11 µM.

For the compound `CC(C)OC(=O)Nc1cnc2nc(-c3cc(NC4=NCC(C)(C)O4)ccc3F)cn2c1` [Compound 503], the EC50 in test [1] is more than 25 µM; in test [2], 26.6 µM; in test [3] (setting [5]) it was 36.7 µM; in test [4], more than 20 µM.

`Cc1nc(C)c(C(=O)Nc2ccc(F)c(-c3cn4cc(NC5=NCC(C)O5)cnc4n3)c2)o1` (stereo not drawn) [Compound 504]: the EC50 in test [1] amounted to 2.97 µM; in test [2], 5.51 µM; in test [3] (setting [5]), 0.976 µM; in test [4] it was 10.7 µM.

Take `Cc1nc(C)c(C(=O)Nc2ccc(F)c(-c3cn4cc(NC5=NC(C)(C)CO5)cnc4n3)c2)o1` [Compound 505]: the EC50 in test [1] worked out at 1.17 µM; in test [2] it was 3.48 µM; in test [3] (setting [5]), 0.845 µM; in test [4], 5 µM.

On to `Cc1nc(C)c(C(=O)Nc2ccc(F)c(-c3cn4cc(NC5=NCC(C)(C)O5)cnc4n3)c2)o1` [Compound 507], for which the EC50 in test [1] worked out at 1.85 µM; in test [2], 5.8 µM; in test [3] (setting [5]) it was 1.26 µM; in test [4], 9.92 µM.

For the compound `Cc1nc(C)c(C(=O)Nc2ccc(F)c(-c3cn4cc(NC5=NCC(C(F)(F)F)O5)cnc4n3)c2)o1` (stereo not drawn) [Compound 508], the EC50 in test [1] was determined as 1.71 µM; in test [2] it was 8.24 µM; in test [3] (setting [5]) it was 4.36 µM; in test [4] it was 11.5 µM.

As to `Cc1nc(C)c(C(=O)Nc2ccc(F)c(-c3cn4cc(NC5=NCC(C)(C)N5)cnc4n3)c2)o1` [Compound 509], the EC50 in test [1] was more than 25 µM; in test [2], more than 50 µM; in test [3] (setting [5]), 10.3 µM; in test [4] it was more than 20 µM.

On to `Cc1nc(C)c(C(=O)Nc2ccc(F)c(-c3cn4cc(NC5=N[C@H]6CCCC[C@@H]6O5)cnc4n3)c2)o1` [Compound 510], for which the EC50 worked out at 1.6 µM in test [1], 8.13 µM in test [2], 4.01 µM in test [3] (setting [5]) and 2.61 µM in test [4].

For the compound `Cc1nc(C)c(C(=O)Nc2ccc(F)c(-c3cn4cc(NC5=N[C@@H]6CCC[C@H]6O5)cnc4n3)c2)o1` [Compound 511], the concentration for a half-maximal effect (EC50) was determined as 1.55 µM in test [1], 2.28 µM in test [2], 0.59 µM in test [3] (setting [5]) and 3.68 µM in test [4].

For the compound `Cc1nc(C)c(C(=O)Nc2ccc(F)c(-c3cn4cc(NC(=O)OCCCCl)cnc4n3)c2)o1` [Compound 519], the 50% effective concentration (EC50) in test [1] came out at 0.244 µM; in test [2], 1.62 µM; in test [3] (setting [5]), 0.366 µM; in test [4], 3.26 µM.

As for `Cc1nc(C)c(C(=O)Nc2ccc(F)c(-c3cn4cc(NC5=NC(C)CO5)cnc4n3)c2)o1` (stereo not drawn) [Compound 524], the EC50 is 3.51 µM in test [1], 9.54 µM in test [2], 1 µM in test [3] (setting [5]) and 12.7 µM in test [4].

For the compound `Cc1nnc(C(=O)Nc2cccc(-c3cn4cc(NC(=O)OC(C)C)cnc4n3)c2)o1` [Compound 526, isopropyl (2-(3-(5-methyl-1,3,4-oxadiazole-2-carboxamido)phenyl)imidazo[1,2-a]pyrimidin-6-yl)carbamate], the EC50 in test [1] was more than 25 µM; in test [2], more than 50 µM; in test [3] (setting [5]), more than 50 µM; in test [4], more than 20 µM.

`Cc1nnc(C(=O)Nc2ccc(Cl)c(-c3cn4cc(NC(=O)OC(C)C)cnc4n3)c2)o1` [Compound 527]: the EC50 in test [1] is more than 25 µM; in test [2] it was 5.77 µM; in test [3] (setting [5]), more than 50 µM; in test [4] it was more than 20 µM.

For the compound `Cc1nc(C(=O)Nc2ccc(Cl)c(-c3cn4cc(NC(=O)OC(C)C)cnc4n3)c2)no1` [Compound 528], the EC50 was more than 25 µM in test [1], 8.94 µM in test [2], 6.96 µM in test [3] (setting [5]) and more than 20 µM in test [4].

For the compound `CC(C)OC(=O)Nc1cnc2nc(-c3cc(N4C(=O)c5ccccc5C4=O)ccc3Cl)cn2c1` [Compound 530, isopropyl (2-(2-chloro-5-(1,3-dioxoisoindolin-2-yl)phenyl)imidazo[1,2-a]pyrimidin-6-yl)carbamate], the EC50 in test [1] was more than 13.1 µM; in test [2], more than 50 µM; in test [3] (read-out: T. brucei EC50 (μM)) it was more than 50 µM; in test [4], more than 20 µM.

Turning to `CC(C)OC(=O)Nc1cnc2nc(-c3cc(-n4cn[nH]c4=O)ccc3Cl)cn2c1` [Compound 535], the EC50 in test [1] is more than 25 µM; in test [2] it was more than 35.5 µM; in test [3] (setting [5]) it was 31.1 µM; in test [4], more than 20 µM.

For `C=C(C)c1cnc2nc(-c3cc(NC(=O)c4oc(C)nc4C)ccc3F)cn2c1` [Compound 537, N-(4-fluoro-3-(6-(prop-1-en-2-yl)imidazo[1,2-a]pyrimidin-2-yl)phenyl)-2,4-dimethyloxazole-5-carboxamide], the EC50 turned out to be 0.124 µM in test [1], 0.286 µM in test [2], 0.164 µM in test [3] (setting [5]) and 0.103 µM in test [4].

Turning to `Cc1nc(C)c(C(=O)Nc2ccc(F)c(-c3cn4cc(C5CCNCC5)cnc4n3)c2)o1` [Compound 538, N-(4-fluoro-3-(6-(piperidin-4-yl)imidazo[1,2-a]pyrimidin-2-yl)phenyl)-2,4-dimethyloxazole-5-carboxamide], the EC50 came out at 2.36 µM in test [1], 1.86 µM in test [2], 0.613 µM in test [3] (setting [5]) and 0.447 µM in test [4].

Turning to `Cc1nc(C)c(C(=O)Nc2ccc(F)c(-c3cn4cc(C#CCCO)cnc4n3)c2)o1` [Compound 543, N-(4-fluoro-3-(6-(4-hydroxybut-1-yn-1-yl)imidazo[1,2-a]pyrimidin-2-yl)phenyl)-2,4-dimethyloxazole-5-carboxamide], the concentration for a half-maximal effect (EC50) in test [1] is 0.212 µM; in test [2], 0.759 µM; in test [3] (setting [5]) it was 0.134 µM; in test [4], 0.882 µM.

`Cc1nc(C)c(C(=O)Nc2ccc(F)c(-c3cn4cc(C#CCCN5CCOCC5)cnc4n3)c2)o1` [Compound 544, N-(4-fluoro-3-(6-(4-morpholinobut-1-yn-1-yl)imidazo[1,2-a]pyrimidin-2-yl)phenyl)-2,4-dimethyloxazole-5-carboxamide]: the EC50 in test [1] is 4.04 µM; in test [2] it was 19.3 µM; in test [3] (setting [5]) it was more than 50 µM; in test [4], 4.01 µM.

As for `Cc1nc(C)c(C(=O)Nc2ccc(F)c(-c3cn4cc(C#CCCN5CCCC(O)C5)cnc4n3)c2)o1` (stereo not drawn) [Compound 545], the EC50 in test [1] is 3.9 µM; in test [2], 2.13 µM; in test [3] (setting [5]) it was 3.25 µM; in test [4], 7.18 µM.

Regarding `Cc1nc(C)c(C(=O)Nc2ccc(F)c(-c3cn4cc(C#CCCN5CCN(C)CC5)cnc4n3)c2)o1` [Compound 546], the EC50 in test [1] turned out to be 5.66 µM; in test [2], 30.2 µM; in test [3] (setting [5]), 3.18 µM; in test [4] it was 3.85 µM.

For `COCCOc1cnc2nc(-c3cc(NC(=O)c4oc(C)nc4C)ccc3F)cn2c1` [Compound 547, N-(4-fluoro-3-(6-(2-methoxyethoxy)imidazo[1,2-a]pyrimidin-2-yl)phenyl)-2,4-dimethyloxazole-5-carboxamide], the 50% effective concentration (EC50) in test [1] came to 0.856 µM; in test [2], 4.53 µM; in test [3] (setting [5]), 0.607 µM; in test [4] it was 1.36 µM.

On to `COC(=O)c1cnc2nc(-c3cc(NC(=O)c4oc(C)nc4C)ccc3F)cn2c1` [Compound 548, methyl 2-(5-(2,4-dimethyloxazole-5-carboxamido)-2-fluorophenyl)imidazo[1,2-a]pyrimidine-6-carboxylate], for which the EC50 in test [1] came to 0.651 µM; in test [2], 1.07 µM; in test [3] (setting [5]) it was 0.518 µM; in test [4] it was 0.539 µM.

Consider `Cc1nc(C)c(C(=O)Nc2ccc(F)c(-c3cn4cc([Si](C)(C)C)cnc4n3)c2)o1` [Compound 549, N-(4-fluoro-3-(6-(trimethylsilyl)imidazo[1,2-a]pyrimidin-2-yl)phenyl)-2,4-dimethyloxazole-5-carboxamide], for which the EC50 is 0.133 µM in test [1], 0.448 µM in test [2], 0.117 µM in test [3] (setting [5]) and 0.063 µM in test [4].
